Laboratory results: patent US20220194960A1, “WEE1 INHIBITOR AND PREPARATION AND USE THEREOF” (SHOUYAO HOLDINGS (BEIJING) CO., LTD., priority 2019, published 2022)
Read-outs that look alike come from different tables or passages of the source.

Key:
[1] = Animal pharmacokinetic studies in rats; format: in vivo; conditions: male rats, 5 mg/kg single intragastric administration, plasma
Method: 3. Animal Pharmacokinetic Studies of Compounds:
Animal pharmacokinetic experiments were conducted with 3 healthy adult male rats from Beijing Vital River Laboratory Animal Technology Co., Ltd. The compound was suspended in a 20% solution of sulfobutyl ether-β-cyclodextrin (W/W/V) at a concentration of 1 mg/mL, The rats were subjected to 5 mg/kg suspension of the compound by single intragastric administration with a dosing volume of 5 mL/kg. Animals were fasted overnight prior to the experiment from 10 h before dosing to 4 h alter dosing. Blood was collected 0.25, 0.5, 1, 2, 4, 6, 8 and 24 h after administration. Animals were lightly anesthetized with isoflurane, and approximately 0.4 ml, of whole blood was collected from the orbital venous plexus with a glass blood collection tube, placed in a heparin anticoagulant tube, centrifuged at 4200 rpm for 5 min at 4° C., plasma transferred to the centrifuge tube, and stored at −80° C. until analysis. Test compounds extracted from rat plasma using acetonitrile protein precipitation and internal standard (Warfarin or Propranolol) were used for Plasma sample analysis, and the extracts were analyzed by LC/MS/MS. The measured plasma concentration-time data for individual animals were analyzed using non-compartmental model of WinNonlin (version 5.2.1; Pharsight) software to obtain the following pharmacokinetic parameters: maximum (peak) plasma drug concentration Cmax; a peak time Tmax; half-life T1/2 and the area under the plasma concentration-time curve front time 0 extrapolated to infinite time AUC0-inf.

[2] = target: T1, WEE1 kinase (Homo sapiens, UniProt P30291); assay: WEE1 kinase binding assay (LanthaScreen EU); conditions: WEE1 kinase 20 nM, Kinase Tracer 178 100 nM, 23° C. for 60 min, read-out: WEEI (IC50)
T1 construct: purchased Carna bioscience
Method: 1. Assay for WEE1 Kinase Inhibitory Activity (IC50) on Compounds
The WEE1 kinase binding assay was established and optimized with LanthaScreen EU for the determination of the activity of compounds. 10 mM compounds were subjected to ten-fold gradient dilution in 100% DMSO (6 concentrations in total), 5 μL of diluent from each concentration was added to 45 μL of reaction buffer (50 mM HEPES (4-hydroxyethylpiperazine ethanesulfonic acid), pH 7.5, 10 mM MgCl2 (magnesium chloride), 1 mM EGTA (ethylene glycol diethyl ether diamine tetraacetic acid), 0.01% Brij-35 (polyoxyethylene lauryl ether)) for blending. On this basis, 2 μL diluent from each concentration was added to 48 μL of reaction buffer for blending as a 4*compound (final concentrations of 1000, 100, 10, 1, 0.1, 0 nM) for later use. Reaction buffer was used to formulate 4*WEE1 kinase (purchased from Carna bioscience, a final concentration of 20 nM), 4*LanthaScreen EU-anti-GST Antibody (purchased from Invitrogen, PV5594, a fuel concentration of 2 nM), and 4*Kinase Tracer 178 (purchased from Invitrogen, PV5593, a final concentration of 100 nM). 2.5 μL of 4*compound was added to a 384-well plate (OptiPlate-384, purchased from PerkinElmer), followed by adding 2.5 μL of 4*WEE1 kinase, standing for 5 min at room temperature. Then 2.5 μL of 4*LanthaScreen EU-anti-GST Antibody was added followed by 2.5 μL of 4*Kinase Tracer 178. The reaction was started by centrifugation (a total reaction volume of 10 μL). The 384-well plate was wrapped with tin foil paper and placed in an incubator at 23° C. for 60 min. Fluorescence values (excitation at 320 nm, detecting emitted light at 665 nm and 615 nm, and a ratio of the two as enzyme activity) were read on Envision (purchased from PerkinElmer). The enzyme activity of each compound was measured at 6 concentrations, and the IC50 value of the compound was calculated using GraFit6.0 software (Erithacus Software).
The aforementioned “*” refers to multiplying, representing multiples.

[3] = system: Human non-small cell lung cancer cells NCI-H1299; assay: NCI-H1299 cell proliferation inhibition (CellTiter-Glo); format: cell-based; conditions: cultured 3 days, table head NCI-H1975, method NCI-H1299
Method: 2. Determination of Cell Proliferation Activity of Compounds:
NCI-H1299 cell proliferation inhibition screening method was established using CellTiter-fib detection reagent from Promega.
Human non-small cell lung cancer cells NCI-H1299 were cultured in 25 cm^2 or 75 cm^2 plastic tissue culture flasks (Corning) filled with DMEM (Gibco) medium supplemented with 10% fetal bovine serum (Hyclone) under 37° C., 95% air, and 5% CO2, and subcultured 2-3 times a week.
Cells were seeded at 1000 cells/well in a 96-well cell culture plate (Corning), 195 μL/well, and cultured under 37° C., 95% air, and 5% CO2. The next day test compound was added: 10 mM compounds (dissolved in DMSO) were subjected to 3-fold gradient dilution in DMSO, 2 μL of diluent from each concentration was added to 48 μL of serum-fret medium, and finally 5 μL of the diluted compound was added to the plate seeded with cells. The final concentration of DMSO in the cell culture was 0.1% and the foul concentration of the test compound was 0.3 nM-10 μM. The cells were cultured at 37° C. for 3 days.

T1 sequence (P30291 whole entry): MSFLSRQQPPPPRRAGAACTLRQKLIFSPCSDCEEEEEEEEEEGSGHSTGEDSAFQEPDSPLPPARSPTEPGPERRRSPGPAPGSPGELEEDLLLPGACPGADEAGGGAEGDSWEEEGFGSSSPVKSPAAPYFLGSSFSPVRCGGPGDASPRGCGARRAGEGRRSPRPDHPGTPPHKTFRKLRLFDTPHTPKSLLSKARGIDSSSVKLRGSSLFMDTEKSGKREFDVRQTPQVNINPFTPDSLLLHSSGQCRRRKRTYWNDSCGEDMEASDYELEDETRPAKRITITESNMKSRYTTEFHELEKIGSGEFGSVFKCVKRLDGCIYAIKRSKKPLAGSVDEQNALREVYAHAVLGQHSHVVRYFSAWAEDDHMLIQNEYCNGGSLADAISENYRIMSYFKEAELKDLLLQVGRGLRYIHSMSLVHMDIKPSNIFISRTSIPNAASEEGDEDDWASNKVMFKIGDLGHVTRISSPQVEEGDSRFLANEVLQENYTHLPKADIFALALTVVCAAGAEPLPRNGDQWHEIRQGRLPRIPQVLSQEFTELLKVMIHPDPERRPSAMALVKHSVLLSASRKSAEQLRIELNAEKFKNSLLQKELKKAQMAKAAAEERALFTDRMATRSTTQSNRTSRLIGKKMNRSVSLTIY

Compound | half-life ([1]; rat, po) [h] | AUC(0-inf) ([1]; rat, po, read-out: AUC0-inf) [µg·h/mL] | Cmax ([1]; rat, po, read-out: Cmax) [µg/mL] | Tmax ([1]; rat, po, read-out: Tmax) [h] | IC50 [2] [nM] | further results
CN1CCN(C2CCN(c3ccc(Nc4ncc5c(F)c(C6CC6)n(-c6cccc(C(C)(C)O)n6)c5n4)cc3)CC2)CC1 [Example 58, 2-(6-(2-((4-(4-(4-methylpiperazin-1-yl)piperidin-1-yl)phenyl)amino)-5-fluoro-6-cyclopropyl-7H-pyrrolo[2,3-d]pyrimidin-7-yl)pyridin-2-yl)propan-2-ol] | – | – | – | – | – | AUC(0-inf) [1]: 1.751 µg·h/mL; Cmax [1]: 0.083 µg/mL; T1/2 [1]: 10.9 h; Tmax [1]: 6.0 h
CN1CCN(c2ccc(Nc3ncc4c(F)c(C5CC5)n(-c5cccc(C(C)(C)O)n5)c4n3)cc2)CC1 [Example 57, 2-(6-(2-((4-(4-methylpiperazin-1-yl)phenyl)amino)-5-fluoro-6-cyclopropyl-7H-pyrrolo[2,3-d]pyrimidin-7-yl)pyridin-2-yl)propan-2-ol] | 11.2 | 1.08 | 0.068 | 2.3 | – | –
CCCc1cc2cnc(Nc3ccc(N4CCN(C)CC4)cc3)nc2n1-c1cccc(N=S(C)(C)=O)n1 [Example 7, ((6-(6-propyl-2-((4-(4-methylpiperazin-yl)phenyl)amino)-7H-pyrrolo[2,3-d]pyrimidin-7-yl)pyridin-2-yl)imino)dimethyl-λ^6-sulfanone] | – | – | – | – | 0.92 | IC50 [3]: 42 nM
CN1CCN(C2CCN(c3ccc(Nc4ncc5cc(C6CC6)n(-c6cccc(C(C)(C)O)n6)c5n4)cc3)CC2)CC1 [Example 56, 2-(6-(2-((4-(4-(4-methylpiperazin-1-yl)piperidin-1-yl)phenyl)amino)-6-cyclopropyl-7H-pyrrolo[2,3-d]pyrimidin-7-yl)pyridin-2-yl)propan-2-ol] | 7.6 | 1.42 | 0.116 | 4 | – | –
CN1CCN(C2CCN(c3ccc(Nc4ncc5cc(C6CC6)n(-c6cccc(N=S(C)(C)=O)n6)c5n4)cc3F)CC2)CC1 [Example 48, ((6-(2-((3-fluoro-4-(4-(4-methylpiperazin-1-yl)piperidin-1-yl)phenyl)amino)-6-cyclopropyl-7H-pyrrolo[2,3-d]pyrimidin-7-yl)pyridin-2-yl)imino)dimethyl-λ^6-sulfanone] | – | – | – | – | 0.8 | IC50 ([3]; Homo sapiens, 72 h): 42 nM
CN1CCN(c2ccc(Nc3ncc4c(F)c(C5CC5)n(-c5cccc(N=S(C)(C)=O)n5)c4n3)cc2)CC1CO (stereo not drawn) [Example 27, ((6-(6-cyclopropyl-5-fluoro-2 ((4-(3-hydroxymethyl-4-methylpiperazin-1-yl)phenyl)amino)-7H-pyrrolo[2,3-d]pyrimidin-7-yl)pyridin-2-yl)imino)dimethyl-λ^6-sulfanone] | – | – | – | – | 0.57 | IC50 ([3]; Homo sapiens, 72 h): 60 nM

Further lines, with some results ahead:

half-life ([1]; rat, po) [h] | AUC(0-inf) ([1]; rat, po, read-out: AUC0-inf) [µg·h/mL] | Cmax ([1]; rat, po, read-out: Cmax) [µg/mL] | Tmax ([1]; rat, po, read-out: Tmax) [h] | IC50 [2] [nM] | Compound | further results
13.6 | 2.34 | 0.098 | 5.33 | – | CN1CCN(C2CCN(c3ccc(Nc4ncc5cc(C6CC6)n(-c6cccc(C(C)(C)O)n6)c5n4)cc3F)CC2)CC1 [Example 77, 2-(6-(2-((3-fluoro-4 (4-(4-methylpiperazin-1-yl)piperidin-1-yl)phenyl)amino)-6-cyclopropyl-7H-pyrrolo[2,3-d]pyrimidin-7-yl)pyridin-2-yl)propan-2-ol] | –
9.2 | 1.1 | 0.064 | 5.4 | – | Cc1cc2cnc(Nc3ccc(N4CCC(N5CCN(C)CC5)CC4)cc3)nc2n1-c1cccc(C(C)(C)O)n1 [Example 148, 2-(6-(6-methyl-2-((4-(4-(4-methylpiperazin-1-yl)piperidin-1-yl)phenyl)amino)-7H-pyrrolo[2,3-d]pyrimidin-7-yl)pyridin-2-yl)propan-2-ol] | –
– | – | – | – | 1.03 | CCCc1cc2cnc(Nc3ccc(N4CCC5(CCN(C)CC5)CC4)cc3)nc2n1-c1cccc(C(C)(C)O)n1 [Example 124, 2-(6-(6-propyl-2-((4-(9-methyl-3,9-diazaspiro[5.5]undecan-3-yl)phenyl)amino)-7H-pyrrolo[2,3-d]pyrimidin-7-yl)pyridin-2-yl)propan-2-ol] | AUC(0-inf) [1]: 4.066 µg·h/mL; Cmax [1]: 0.163 µg/mL; T1/2 [1]: 19.2 h; Tmax [1]: 4.8 h
– | – | – | – | 0.69 | CCCc1cc2cnc(Nc3ccc(N4CCN(C)CC4)cn3)nc2n1-c1cccc(N=S(C)(C)=O)n1 [Example 110, ((6-(6-propyl-2-((5-(4-methylpiperazin-1-yl)pyridin-2-yl)amino)-7H-pyrrolo[2,3-d]pyrimidin-7-yl)pyridin-2-yl)imino)dimethyl-λ^6-sulfanone] | IC50 [3]: 88 nM
